Experimental data as given in the supplement of paper PMC11781733.

How the values were obtained:
Details in all cases: exposure time: 15 min to 3 h acute
[1] = test system: Dugesia japonica; assay: crawl-out incidence (% planarians); higher = higher incidence or increase relative to vehicle control
Procedure: (§1)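 Adult asexual Dugesia japonica planarians (1 per well, 48-well plate, n=24 over technical triplicates) were exposed acutely (15 min to 3 h) to each compound (0.5% DMSO or water vehicle) and screened on a robotic platform for crawl-out, stickiness, body shape, phototaxis, noxious-heat scrunching and locomotion endpoints. Binary endpoints are incidence rate x100. Continuous endpoints are the median response normalised to the plate vehicle median, as % change or difference. Negative incidences after vehicle subtraction were set to 0.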

[2] = test system: Dugesia japonica; assay: speed in dark vs vehicle (% change vs vehicle); higher = higher incidence or increase relative to vehicle control
Procedure: as §1, with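 “x100 normalised to in-plate vehicle controls.” for “x100.”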

[3] = test system: Dugesia japonica; assay: C-shape incidence (% planarians (vehicle-normalised)); higher = higher incidence or increase relative to vehicle control
Procedure: as §1, with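 “x100 normalised to in-plate vehicle controls.” for “x100.”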

[4] = test system: Dugesia japonica; assay: corkscrew incidence (% planarians (vehicle-normalised)); higher = higher incidence or increase relative to vehicle control
Procedure: as §1, with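 “x100 normalised to in-plate vehicle controls.” for “x100.”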

[5] = test system: Dugesia japonica; assay: stickiness incidence (% planarians (vehicle-normalised)); higher = higher incidence or increase relative to vehicle control
Procedure: as §1, with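 “x100 normalised to in-plate vehicle controls.” for “x100.”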

[6] = test system: Dugesia japonica; assay: hyperkinesis incidence (% planarians (vehicle-normalised)); higher = higher incidence or increase relative to vehicle control
Procedure: as §1, with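 “x100 normalised to in-plate vehicle controls.” for “x100.”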

[7] = test system: Dugesia japonica; assay: speed first 30 s blue light vs vehicle (% change vs vehicle); higher = higher incidence or increase relative to vehicle control
Procedure: as §1, with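 “x100 normalised to in-plate vehicle controls.” for “x100.”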

[8] = test system: Dugesia japonica; assay: speed second 30 s blue light vs vehicle (% change vs vehicle); higher = higher incidence or increase relative to vehicle control
Procedure: as §1, with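 “x100 normalised to in-plate vehicle controls.” for “x100.”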

[9] = test system: Dugesia japonica; assay: pharynx extrusion incidence (% planarians (vehicle-normalised)); higher = higher incidence or increase relative to vehicle control
Procedure: as §1, with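 “x100 normalised to in-plate vehicle controls.” for “x100.”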

[10] = test system: Dugesia japonica; assay: loss of phototaxis incidence (% planarians (vehicle-normalised)); higher = higher incidence or increase relative to vehicle control
Procedure: as §1, with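 “x100 normalised to in-plate vehicle controls.” for “x100.”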

[11] = test system: Dugesia japonica; assay: total locomotor bursts minus vehicle (bursts difference vs vehicle); higher = higher incidence or increase relative to vehicle control
Procedure: as §1, with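 “x100 normalised to in-plate vehicle controls.” for “x100.”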

[12] = test system: Dugesia japonica; assay: noxious heat displacement strength vs vehicle (% change vs vehicle); higher = higher incidence or increase relative to vehicle control
Procedure: as §1, with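 “x100 normalised to in-plate vehicle controls.” for “x100.”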

[13] = test system: Dugesia japonica; assay: contracted body shape incidence (% planarians (vehicle-normalised)); higher = higher incidence or increase relative to vehicle control
Procedure: as §1, with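 “x100 normalised to in-plate vehicle controls.” for “x100.”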

[14] = test system: Dugesia japonica; assay: anxiety (time in outer well region) vs vehicle (% change vs vehicle); higher = higher incidence or increase relative to vehicle control
Procedure: as §1, with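 “x100 normalised to in-plate vehicle controls.” for “x100.”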

[15] = test system: Dugesia japonica; assay: any abnormal body shape incidence (% planarians (vehicle-normalised)); higher = higher incidence or increase relative to vehicle control
Procedure: as §1, with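 “x100 normalised to in-plate vehicle controls.” for “x100.”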

[16] = test system: Dugesia japonica; assay: resting fraction in dark vs vehicle (difference in fraction x100 vs vehicle); higher = higher incidence or increase relative to vehicle control
Procedure: as §1, with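 “x100 normalised to in-plate vehicle controls.” for “x100.”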

[17] = test system: Dugesia japonica; assay: loss of heat-induced scrunching incidence (% planarians (vehicle-normalised)); higher = higher incidence or increase relative to vehicle control
Procedure: as §1, with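 “x100 normalised to in-plate vehicle controls.” for “x100.”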

[18] = test system: Dugesia japonica; assay: resting fraction in blue light vs vehicle (difference in fraction x100 vs vehicle); higher = higher incidence or increase relative to vehicle control
Procedure: as §1, with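 “x100 normalised to in-plate vehicle controls.” for “x100.”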

| Structure (SMILES) | crawl-out incidence [1] | speed in dark [2] | C-shape incidence [3] | corkscrew incidence [4] | stickiness incidence [5] | hyperkinesis incidence [6] | speed first 30 s blue light [7] | speed second 30 s blue light [8] | pharynx extrusion incidence [9] | loss of phototaxis incidence [10] | total locomotor bursts minus vehicle [11] | noxious heat displacement strength [12] | contracted body shape incidence [13] | anxiety [14] | any abnormal body shape incidence [15] | resting fraction in dark [16] | loss of heat-induced scrunching incidence [17] | resting fraction in blue light [18] |
| --- | --- | --- | --- | --- | --- | --- | --- | --- | --- | --- | --- | --- | --- | --- | --- | --- | --- | --- |
| O=C1CCc2ccc(OCCCCN3CCN(c4cccc(Cl)c4Cl)CC3)cc2N1 [aripiprazole] (3.16 µM) | 0 | 27.4 | 0 | 0 | ≤ 0 | 4.17 | 18.9 | 8.71 | 0 | 45.8 | -2.5 | 0.14 | 0 | 0.35 | 4.17 | -2.43 | 4.17 | 0.05 |
| O=C1CCc2ccc(OCCCCN3CCN(c4cccc(Cl)c4Cl)CC3)cc2N1 [aripiprazole] (10 µM) | 0 | -46.8 | 12.5 | 4.17 | ≤ 0 | 4.17 | -70.8 | -63.1 | 0 | 25 | 31 | -17.3 | 0 | -16.3 | 20.8 | 34.5 | 16.7 | 19.8 |
| O=C1CCc2ccc(OCCCCN3CCN(c4cccc(Cl)c4Cl)CC3)cc2N1 [aripiprazole] (31.6 µM) | 0 | -62.3 | 62.5 | 4.17 | ≤ 0 | 12.5 | -79.9 | -81.8 | 4.17 | 25 | 53 | -38.6 | 0 | -46.5 | 70.8 | 56.6 | 70.8 | 32 |
| O=C1CCc2ccc(OCCCCN3CCN(c4cccc(Cl)c4Cl)CC3)cc2N1 [aripiprazole] (100 µM) | 4.17 | -64.8 | 60.9 | 0 | ≤ 0 | 17.4 | -88.7 | -88.8 | 0 | 47.8 | 55 | -49 | 0 | -67.2 | 65.2 | 56.9 | 78.3 | 69.8 |
| O=C(CCCN1CCC(O)(c2ccc(Br)cc2)CC1)c1ccc(F)cc1 [bromperidol] (3.16 µM) | 33.3 | -33.9 | 4.76 | 14.3 | ≤ 0 | 47.6 | -55.1 | -53.4 | 0 | ≤ 0 | 11 | -37 | 9.52 | -1.33 | 57.1 | 24 | 47.6 | 28.6 |
| O=C(CCCN1CCC(O)(c2ccc(Br)cc2)CC1)c1ccc(F)cc1 [bromperidol] (10 µM) | 25 | -40.7 | 0 | 42.9 | ≤ 0 | 52.4 | -49.8 | -60.1 | 0 | ≤ 0 | 8 | -32.1 | 4.76 | 7.64 | 66.7 | 50.5 | 47.6 | 38 |
| O=C(CCCN1CCC(O)(c2ccc(Br)cc2)CC1)c1ccc(F)cc1 [bromperidol] (31.6 µM) | 8.33 | -41 | 4.35 | 21.7 | ≤ 0 | 69.6 | -69 | -63.1 | 0 | ≤ 0 | 0.5 | -36.2 | 30.4 | 20.6 | 73.9 | 43.3 | 52.2 | 37.3 |
| O=C(CCCN1CCC(O)(c2ccc(Br)cc2)CC1)c1ccc(F)cc1 [bromperidol] (100 µM) | 25 | -39.1 | 4.76 | 23.8 | ≤ 0 | 42.9 | -53.3 | -63.4 | 0 | ≤ 0 | 17 | -48 | 4.76 | 21.1 | 57.1 | 43.4 | 28.6 | 40.4 |
| CC(NC(C)(C)C)C(=O)c1cccc(Cl)c1 (centres undefined) [bupropion] (31.6 µM) | 0 | -1.56 | 0 | 0 | ≤ 0 | 0 | -59.5 | -19.4 | 0 | 20.8 | -7.5 | -22.3 | 4.17 | 2.47 | 0 | 17.5 | 16.7 | 23.4 |
| CC(NC(C)(C)C)C(=O)c1cccc(Cl)c1 (centres undefined) [bupropion] (100 µM) | 0 | -35.4 | 0 | 0 | 13 | 0 | 9.9 | 20.6 | 0 | 4.17 | -1 | -32.4 | 0 | 3.91 | 0 | 25.7 | 12.5 | -3.29 |
| Cc1cc2c(s1)Nc1ccccc1N=C2N1CCN(C)CC1 [olanzapine] (10 µM) | 0 | -68 | 4.17 |  | ≤ 0 | 58.3 | -85.6 | -80.9 | 0 | 4.17 | 20 | -28.1 | 0 | -12.4 | 58.3 | 72.3 | 58.3 | 63.5 |
| Cc1cc2c(s1)Nc1ccccc1N=C2N1CCN(C)CC1 [olanzapine] (31.6 µM) | 4.17 | -71.9 | 4.17 | 16.7 | 16.7 | 62.5 | -93.9 | -89.9 | 0 | 17.4 | 6 | -52.3 |  | 24.7 | 75 | 78.3 | 75 | 77.7 |
